Measurements as given in patent publication US12448369B2 (Edgewise Therapeutics, Inc., priority 2023, dated 2025).
Marks after values point to notes of the source that are not given here.

How the values were obtained:
[1] = system: Rabbit Psoas myofibrils (skeletal myosin ATPase); experiment: Myofibril ATPase assay, rabbit psoas (skeletal) myofibrils; type: biochemical; details: rabbit psoas myofibrils
Outline: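 Myofibrils homogenized in Triton X-100 buffer were assayed in pH 7.0 PIPES with defined Ca2+/EGTA. Myosin-driven ADP formation was coupled to NADH oxidation, with depletion monitored at 340 nm. Each value is the concentration that lowers activity to 75% of vehicle or, for activators, raises it to 125%.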

[2] = system: Porcine atria myofibrils (atrial myosin ATPase); experiment: Myofibril ATPase assay, porcine atria myofibrils; type: biochemical; details: porcine atria myofibrils
Outline: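 Values are Y75 (concentration cutting ATPase activity to 75% of vehicle) or Y125 (raising it to 125%), taken from 4-parameter logistic fits. Rates come from NADH disappearance at 340 nm in a PK/LDH-coupled assay with porcine atria myofibrils.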

[3] = target: T1, Porcine ventricle myofibrils (ventricular myosin ATPase) (Sus scrofa, UniProt P79293); experiment: Myofibril ATPase assay, porcine ventricle myofibrils; type: biochemical, porcine (Yucatan minipigs); details: porcine ventricle myofibrils
T1 construct: Myofibrils from porcine cardiac muscle was isolated from the left ventricle of Yucatan minipigs; tissue Exemplar Genetics; host or cells: left ventricle of Yucatan minipigs, myofibrils prepared in house
Outline: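 Myofibrils isolated from Yucatan minipig left ventricle; coupled PK/LDH NADH assay, pCa buffer pH 7.0, kinetic A340 reads over 75 min. Vehicle-normalized slopes fit 4PL; Y75/Y125 derived.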

[4] = Y75 value (75% activity relative to no compound)
[5] = ‡ Y125 value, not a Y75 value (125% activity relative to no compound)

T1 sequence (P79293 whole entry): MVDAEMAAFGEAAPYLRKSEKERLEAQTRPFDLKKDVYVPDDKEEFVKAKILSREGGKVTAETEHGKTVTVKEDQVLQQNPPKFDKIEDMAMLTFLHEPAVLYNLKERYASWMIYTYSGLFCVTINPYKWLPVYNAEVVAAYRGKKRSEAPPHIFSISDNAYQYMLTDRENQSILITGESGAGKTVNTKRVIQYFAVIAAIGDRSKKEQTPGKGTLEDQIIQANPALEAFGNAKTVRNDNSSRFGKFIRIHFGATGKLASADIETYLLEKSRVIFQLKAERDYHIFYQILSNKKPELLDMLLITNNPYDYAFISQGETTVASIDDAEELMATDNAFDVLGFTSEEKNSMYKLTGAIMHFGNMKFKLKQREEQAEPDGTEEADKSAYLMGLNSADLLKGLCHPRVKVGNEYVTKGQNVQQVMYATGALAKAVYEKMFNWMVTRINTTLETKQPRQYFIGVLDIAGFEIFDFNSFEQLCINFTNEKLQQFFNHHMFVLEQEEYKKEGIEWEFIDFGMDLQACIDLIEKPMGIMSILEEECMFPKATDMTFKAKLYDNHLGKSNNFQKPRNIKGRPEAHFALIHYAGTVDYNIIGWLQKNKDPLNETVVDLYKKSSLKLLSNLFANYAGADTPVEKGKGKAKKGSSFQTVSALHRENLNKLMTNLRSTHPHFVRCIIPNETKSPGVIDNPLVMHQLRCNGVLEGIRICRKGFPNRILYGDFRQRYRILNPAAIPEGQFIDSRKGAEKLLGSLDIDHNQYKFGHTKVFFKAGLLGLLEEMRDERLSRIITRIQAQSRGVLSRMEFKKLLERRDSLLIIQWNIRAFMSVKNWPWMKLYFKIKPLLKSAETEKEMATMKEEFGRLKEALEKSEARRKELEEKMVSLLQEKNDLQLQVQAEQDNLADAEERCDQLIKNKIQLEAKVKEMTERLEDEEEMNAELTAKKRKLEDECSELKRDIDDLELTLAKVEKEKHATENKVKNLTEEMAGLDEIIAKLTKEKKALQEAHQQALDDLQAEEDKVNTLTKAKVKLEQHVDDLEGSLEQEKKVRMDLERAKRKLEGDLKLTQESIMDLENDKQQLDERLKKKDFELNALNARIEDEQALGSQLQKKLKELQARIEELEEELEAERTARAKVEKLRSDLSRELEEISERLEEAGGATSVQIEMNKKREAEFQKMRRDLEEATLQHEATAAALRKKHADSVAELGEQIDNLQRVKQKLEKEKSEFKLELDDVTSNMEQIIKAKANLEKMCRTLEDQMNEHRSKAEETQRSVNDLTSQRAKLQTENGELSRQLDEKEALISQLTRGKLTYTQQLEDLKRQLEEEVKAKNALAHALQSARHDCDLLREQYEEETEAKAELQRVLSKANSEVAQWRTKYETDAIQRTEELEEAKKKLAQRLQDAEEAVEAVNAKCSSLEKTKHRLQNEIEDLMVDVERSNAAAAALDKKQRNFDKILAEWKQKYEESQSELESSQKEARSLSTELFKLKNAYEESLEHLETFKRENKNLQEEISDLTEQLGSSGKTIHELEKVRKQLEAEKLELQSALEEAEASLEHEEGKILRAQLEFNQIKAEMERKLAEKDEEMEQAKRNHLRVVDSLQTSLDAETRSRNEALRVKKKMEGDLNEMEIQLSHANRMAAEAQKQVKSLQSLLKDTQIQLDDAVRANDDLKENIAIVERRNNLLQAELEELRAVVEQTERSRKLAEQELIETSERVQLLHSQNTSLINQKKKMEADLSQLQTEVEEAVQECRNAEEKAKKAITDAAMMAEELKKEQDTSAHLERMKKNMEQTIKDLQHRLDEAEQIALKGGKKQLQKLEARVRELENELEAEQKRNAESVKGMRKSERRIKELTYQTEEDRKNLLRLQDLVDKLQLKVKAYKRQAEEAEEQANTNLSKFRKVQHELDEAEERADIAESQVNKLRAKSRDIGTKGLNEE

Compound | Skeletal EC25 ([1]; Y75 value) | Atrial EC25 [2, 4] | Ventricular EC25 ([3]; Y75 value) | Skeletal EC25 ([1]; Y75 value (no ‡ mark)) | Atrial EC25 ([2]; Y75 value (no ‡ mark)) | Ventricular EC25 ([3]; Y75 value (no ‡ mark)) | also measured
Cc1nccc2[nH]c(=O)c(CC(=O)N[C@H](CO)c3ccncc3)c(C)c12 [compound 292] | 100.00 µM | 100.00 µM | 100.00 µM | – | – | – | –
Cc1c(CC(=O)N[C@@H](C)c2ccc(S(C)(=O)=O)cc2F)c(=O)[nH]c2ccnc(C#N)c12 (single isomer, unassigned) [compound 215] | 100.00 µM | 100.00 µM | 100.00 µM | – | – | – | –
Cc1c(CC(=O)N[C@H](C)c2cnc(C#N)nc2)c(=O)[nH]c2ccc(F)cc12 [compound 1100] | – | – | – | 0.53 µM | 0.77 µM | 2.27 µM | –
Cc1c(CC(=O)N[C@@H](CO)c2ccc(C#N)cc2F)c(=O)[nH]c2ccc(C#N)nc12 [compound 221] | 2.27 µM | 1.12 µM | 45.66 µM | – | – | – | –
Cc1c(CC(=O)N[C@@H](C)c2ccc(C#N)cn2)c(=O)[nH]c2cc(F)ccc12 [compound 1073] | – | – | – | 100.00 µM | 53.69 µM | 89.23 µM | –
COc1cccc([C@H](C)NC(=O)Cc2c(C)c3c(C)nccc3[nH]c2=O)c1 (single isomer, unassigned) [compound 315] | 100.00 µM | 100.00 µM | 100.00 µM | – | – | – | –
Cc1ccc2[nH]c(=O)c(CC(=O)N[C@@H](C)c3ccc(F)cc3F)c(C)c2n1 [compound 420] | 0.19 µM | 0.11 µM | 2.34 µM | – | – | – | –
Cc1c(C2(C(=O)N[C@@H](C)c3ncc(C#N)cn3)CC2)c(=O)[nH]c2cccc(C#N)c12 (single isomer, unassigned) [compound 2544] | – | – | – | 2.27 µM | 4.48 µM | 18.26 µM | –
Cc1nccc2[nH]c(=O)c(C3(C(=O)N[C@H](C)c4ncc(C#N)cc4F)CC3)c(C)c12 (single isomer, unassigned) [compound 3519] | – | 0.94 µM | 17.07 µM | – | – | – | Skeletal EC25 (Y125 value, marked ‡) ([1]; Y125 value, not a Y75 value): 97.12‡ μM
C[C@H](NC(=O)C1(c2cc3c(F)c(F)ccc3[nH]c2=O)CC1)c1cc(C#N)ccn1 (single isomer, unassigned) [compound 2584] | – | – | – | – | 100.00 µM | – | Skeletal EC25 [1, 5]: 100.00‡ μM; Ventricular EC25 [3, 5]: 100.00‡ μM
C[C@@H](NC(=O)Cc1cc2c(C#N)nccc2[nH]c1=O)c1ccc(C#N)cn1 [compound 472] | 0.40 µM | 4.05 µM | 5.93 µM | – | – | – | –
Cc1c(CC(=O)N[C@H](CO)c2ccc(C#N)cc2F)c(=O)[nH]c2ccc(F)c(C3CC3)c12 [compound 71] | – | – | – | 0.23 µM | 1.10 µM | 8.50 µM | –
CC(C(=O)N[C@@H](C)c1ccc(F)cc1F)c1cc2c(C(F)(F)F)nccc2[nH]c1=O (single isomer, unassigned) [compound 3518] | 9.37 µM | 2.05 µM | 100.00 µM | – | – | – | –
Cc1c(CC(=O)N[C@H](C)c2ncc(C#N)cn2)c(=O)[nH]c2cccc(C#N)c12 (single isomer, unassigned) [compound 2069] | – | – | – | 0.49 µM | 0.04 µM | 2.76 µM | –
Cc1c(C2(C(=O)N[C@@H](C)c3cc(C#N)ccn3)CC2)c(=O)[nH]c2ccc(F)cc12 (single isomer, unassigned) [compound 2578] | – | – | – | – | – | – | Skeletal EC25 [1, 5]: 100.00‡ μM; Atrial EC25 [2, 5]: 100.00‡ μM; Ventricular EC25 [3, 5]: 100.00‡ μM
Cc1c(CC(=O)N[C@@H](C)c2ccc(F)cc2F)c(=O)[nH]c2ccc(F)c(F)c12 [compound 116] | – | – | – | 0.02 µM | 0.04 µM | 0.13 µM | –
Cc1cnncc1[C@@H](C)NC(=O)Cc1c(C)c2c(C)nccc2[nH]c1=O [compound 480] | 33.82 µM | 100.00 µM | 100.00 µM | – | – | – | –
C[C@@H](NC(=O)Cc1cc2c(F)c(F)ccc2[nH]c1=O)c1ccc(C#N)cn1 [compound 17] | – | – | – | 0.43 µM | 0.09 µM | 1.56 µM | –
Cc1nccc2[nH]c(=O)c(CC(=O)N[C@H](CO)c3cccnc3)c(C)c12 (single isomer, unassigned) [compound 311] | 100.00 µM | 100.00 µM | 100.00 µM | – | – | – | –

Compound | Skeletal EC25 ([1]; Y75 value) | Atrial EC25 [2, 4] | Ventricular EC25 ([3]; Y75 value) | Skeletal EC25 ([1]; Y75 value (no ‡ mark)) | Atrial EC25 ([2]; Y75 value (no ‡ mark)) | Ventricular EC25 ([3]; Y75 value (no ‡ mark)) | also measured
Cc1c(CC(=O)N[C@H](C)c2ccc(C#N)cc2F)c(=O)[nH]c2ccc(F)c(C3CC3)c12 [compound 69] | – | – | – | 0.01 µM | 0.03 µM | 0.11 µM | –
Cc1nccc2[nH]c(=O)c(CC(=O)N[C@@H](CO)c3ccc(F)cc3F)c(C)c12 (single isomer, unassigned) [compound 396] | 0.55 µM | 1.18 µM | 3.32 µM | – | – | – | –
C[C@H](NC(=O)[C@H](C)c1cc2cnccc2[nH]c1=O)c1ccc(F)cc1F (single isomer, unassigned) [compound 443] | 1.34 µM | 100.00 µM | 100.00 µM | – | – | – | –
C[C@@H](NC(=O)Cc1cc2c(C(F)(F)F)c(F)ccc2[nH]c1=O)c1ncc(C#N)cn1 (single isomer, unassigned) [compound 2009] | – | – | – | 2.25 µM | 100.00 µM | 100.00 µM | –
C[C@H](NC(=O)[C@@H](C)c1c(C(F)(F)F)c2cc(F)ccc2[nH]c1=O)c1ccc(F)cc1F (single isomer, unassigned) [compound 99] | – | – | – | 0.09 µM | 0.13 µM | 100.00 µM | –
C[C@@H](NC(=O)Cc1c(C2CC2)c2cnccc2[nH]c1=O)c1ccc(C#N)cn1 [compound 140] | 42.18 µM | 100.00 µM | 100.00 µM | – | – | – | –
C[C@@H](NC(=O)C1(c2cc3c(F)c(F)ccc3[nH]c2=O)CC1)c1ncc(C#N)cn1 (single isomer, unassigned) [compound 2549] | – | – | – | 7.56 µM | 0.97 µM | 100.00 µM | –
C#Cc1nccc2[nH]c(=O)c(CC(=O)N[C@@H](C)c3cnc(N=[N+]=[N-])cc3C)c(C)c12 [compound 488] | 1.15 µM | 12.56 µM | 4.94 µM | – | – | – | –
Cc1c(CC(=O)N[C@@H](C)c2ccc(C#N)cn2)c(=O)[nH]c2ccc(C(F)(F)F)nc12 [compound 460] | 100.00 µM | 1.53 µM | 30.78 µM | – | – | – | –
Cc1cc(C#N)nnc1[C@@H](C)NC(=O)Cc1c(C)c2c(C)nccc2[nH]c1=O [compound 489] | 0.26 µM | 1.00 µM | 0.57 µM | – | – | – | –
Cc1c(CC(=O)N[C@H](CO)c2ccc(C#N)cc2F)c(=O)[nH]c2ccnc(C#N)c12 (single isomer, unassigned) [compound 241] | 0.17 µM | 0.69 µM | 4.21 µM | – | – | – | –
C[C@@H](NC(=O)C(F)(F)c1cc2cc(F)ccc2[nH]c1=O)c1nccc(C#N)n1 (single isomer, unassigned) [compound 2559] | – | – | – | 100.00 µM | 100.00 µM | 100.00 µM | –
Cc1nccc2[nH]c(=O)c(CC(=O)N[C@@H]3COc4cc(C#N)cc(F)c43)c(C)c12 (single isomer, unassigned) [compound 177] | 0.02 µM | 0.06 µM | 0.09 µM | – | – | – | –
Cc1c(F)ccc2[nH]c(=O)c(C(F)(F)C(=O)N[C@H](C)c3ncc(C#N)cc3F)c(C)c12 (single isomer, unassigned) [compound 4811] | – | – | – | 0.59 µM | 0.73 µM | 0.46 µM | –
Cc1nccc2[nH]c(=O)c(C(F)(F)C(=O)N[C@H](C)c3ncc(C#N)cc3F)c(C)c12 (single isomer, unassigned) [compound 3513] | 5.80 µM | 4.94 µM | 62.33 µM | – | – | – | –
Cc1c(CC(=O)N[C@H](C)c2ncc(F)cc2F)c(=O)[nH]c2ccc(F)c(C(F)(F)F)c12 [compound 9] | – | – | – | 0.65 µM | 3.29 µM | 0.92 µM | –
Cc1c(CC(=O)N[C@H](C)c2ccc(C#N)cn2)c(=O)[nH]c2ccc(F)c(C#N)c12 [compound 49] | – | – | – | 0.06 µM | 0.18 µM | 0.68 µM | –
Cc1c([C@H](C)C(=O)N[C@@H](C)c2ccc(F)cc2F)c(=O)[nH]c2ccnc(OC(F)(F)F)c12 (single isomer, unassigned) [compound 348] | 0.51 µM | 0.34 µM | 6.44 µM | – | – | – | –
